In publication PMC5503601 (Oncotarget, 2017):
Several values for one entry are separate records, joined by “and”; a condition that tells them apart may be missing. Equal values may be shown once. Read-outs that look alike come from different tables or passages of the source.

Assays:
[1] = molecular target: T1, TOPK (Homo sapiens, UniProt Q96KB5); assay: Microscale thermophoresis (MST) binding assay; conditions: labeled TOPK 50 nM, 25°C, means ± SD for three experiments
T1 construct: hexa-histidine; made in house; host or cells: Escherichia coli BL21 (DE)
T1 sequence (Q96KB5 1-322): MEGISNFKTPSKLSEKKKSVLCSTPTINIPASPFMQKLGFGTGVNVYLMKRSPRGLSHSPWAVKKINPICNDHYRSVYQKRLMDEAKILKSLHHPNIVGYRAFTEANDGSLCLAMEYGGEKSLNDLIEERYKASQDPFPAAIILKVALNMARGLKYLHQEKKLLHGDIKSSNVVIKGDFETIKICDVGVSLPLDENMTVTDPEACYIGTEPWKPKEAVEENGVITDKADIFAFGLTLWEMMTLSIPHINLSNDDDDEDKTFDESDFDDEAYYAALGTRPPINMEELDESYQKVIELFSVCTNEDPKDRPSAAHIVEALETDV
From the text: To validate results of the virtual ligand screening, we employed microscale therm ophoresis method (MST) to assay the binding affinity between compounds and TOPK. This technology detected fluorescent changes of molecules during thermophoresis, to quantify protein-protein interactions or protein-small molecule interactions with high sensitivity and low sample cost.
Human TOPK gene (Accssion number: NM_018492) was cloned into the pET26b vector (Novagen). The expression construct pET26b-TOPK was transformed into Escherichia coli strain BL21 (DE) (Invitrogen) and selected on kanamycin plates. The transformed cells were cultivated in Luria-Bertani (LB) media at 37°C in the presence of kanamycin until the optical density (OD) reached 0.8. Cells were then induced with 0.4 mM IPTG (isopropyl-β-D-1-thiogalactopyranoside) for 16 h at 20°C. The cells harvested by centrifugation were lysed by ultrasonication on ice in a buffer containing 20 mM Tris, pH 8.5, 200 mM NaCl, 5 mM mercaptoethanol, 0.1% TritonX-100, and 5% glycerol.
Soluble hexa-histidine tagged TOPK was bound to Ni-agarose affinity resin (Qiagen), washed with buffer A (20 mM Tris, pH 8.5, 200mM NaCl, and 10 mM imidazole), and eluted with buffer B (20 mM Tris, pH 8.8, 250 mM NaCl, and 150 mM imidazole).
Recombinant TOPK was labeled with the Monolith NT™ Protein Labeling Kit RED (Cat # L001) according to the supplied labeling protocol. Labeled TOPK was used in a concentration of 50 nM. The samples were diluted in a 20 mM HEPES (pH 7.4) and 0.5 (v/v) % Tween-20. The prazoles stocks were dissolved in 10% DMSO in a concentration of 1 mM. 1mM prazoles were used as the highest concentration for serial dilutions. After 10minutes incubation at room temperature, the samples were loaded into Monolith^TM standard-treated capillaries and the thermophoresis was measured at 25°C after 30 minutes incubation on a Monolith NT.115 instrument (NanoTemper Technologies, München, Germany). Laser power was set to 20% using 30 seconds on-time. The LED power was set to 100%. The dissociation constant Kd values were fitted by using the NTAnalysis software (NanoTemper Technologies, München, Germany).

[2] = tested on: HCT116 cells; assay: Cell viability (cck8) assay, HCT116; type: cell-based; conditions: Homo sapiens, HCT-116, read-out: IC50 for HCT116 cell activities
Description: (§1) To estimate cell viability, human colon cancer HCT 116, ES-2, A549 and SW1990 cells (5000 cells/well) were seeded in 96-well plates for 24 h at 37°C in a 5% CO2 incubator. […] All experiments were performed in triplicate, and the mean absorbance values were calculated.

[3] = set-up: method as in SciFinder Academic database; conditions: ref SciFinder Academic database; cited from earlier work
[4] = tested on: HCT116 cells; assay: Cell cycle distribution by flow cytometry, HCT116; type: cell-based, human; conditions: HCT116, increasing doses, 48 hours
[5] = HCT116 xenograft mouse model, toxicity and body weight; type: in vivo, CB-17/Icr-scid mice
Description: (§2) Estimated tumor volumes of both treating groups were less than that of the control group throughout the treatment. […] Animals were then scarified and the average tumor weights were measured and calculated. The tumor weight of the control group was 1.45 ± 0.33 g, whereas the tumor weights of low-dose and high-dose treated groups were 0.67 ± 0.21g and 0.52 ± 0.11g, respectively (Figure 5c), representing significant reduction.
CB-17/Icr-scid mice were purchased from Beijing HFK Bioscience CO., LTD (Beijing, China). The animals were maintained under ‘specific pathogen free’ conditions. The mice were randomly divided into three groups: (i) vehicle group (n = 8); (ii) 150 mg/kg ilaprazole-treated group (n = 8); (III) 75 mg/kg ilaprazole-treated group. HCT 116 cells were inoculated subcutaneously (2 × 10^6 cells) into the left flank of each mouse in all groups. Treatment was started after 4 days of cell injection. The duration of the animal study was 19 days. The tumor volume was calculated from measurements of 3 diameters of the individual tumor based on the following formula: […]

[6] = tested on: A549, HCT116, ES-2 and SW1990 cells; assay: Cell viability (cck8) assay, 4 TOPK-positive cancer cell lines; type: cell-based; conditions: Homo sapiens; range over A549, HCT116, ES-2, SW1990; read-out: IC50 values, growth inhibition across the cell lines
Description: TOPK protein levels were measured by western blot in cancer cell lines derived from various cancer types, such as lung cancer (A549), colon cancer (HCT116), human ovarian cancer (ES-2) and pancreatic cancer cell (SW1990).
as §1

[7] = tested on: TOPK activity (phosphorylation of histone H3 Ser10) in ES-2 cells; assay: Western blot of phosphorylated histone H3 (Ser10), ES-2; type: cell-based, human
Description: (§3) TOPK proteins were expressed mainly around chromosomal surfaces in mitotic cells, particularly at prophase and metaphase, so the histone was chosen as the substrate for TOPK activity evaluation. Some reports confirmed that TOPK could phosphorylate histone H3 in vitro and in vivo. […] (Figure 3a, 3b, Supplementary Figure 1a, 1b)
(§4) Histones were extracted from cells by disrupting the cells with NETN buffer [150 mM NaCl, 1 mM EDTA, 20 mM Tris-HCl (pH 8.0), 0.5% nonionic detergent IGEPAL CA 630(NP-40), Sigma]. The insoluble fraction was pelleted for 5 minutes in a microcentrifuge (8,400 rpm). Nuclei were extracted with 0.1 M HCl to isolate the total histones. The samples were precipitated with 1 M Tris- HCl (pH 8.0) and then resuspended in ddH2O.
(§5) The harvested cells were lysed with lysis buffer (50 mM Tris-HCl (pH 7.4), 150 mM NaCl, 1 mM EDTA, 1 mM EGTA, […], 5 mM phenylmethanesulfonyluoride (PMSF), 1 mM dithiolthreitol (DTT) containing 1% Triton X-100). Insoluble debris was removed by centrifugation at 12000 rpm for 15 minutes, and protein's content was determined using Bradford reagent (Bio-Rad, USA). Lysate protein (20-40 μg) was subjected to 10% SDS-PAGE and electrophoretically transferred to polyvinylidene difluoride membranes (PVDF) (Millipore, USA). […] Band density was quantified using the Image J software program (NIH).

[8] = tested on: TOPK activity (phosphorylation of histone H3 Ser10) in HCT116 cells; assay: Western blot of phosphorylated histone H3 (Ser10), HCT116; type: cell-based, human
Description: as §3, §4, §5

[9] = rat, in vivo; cited from earlier work
[10] = tested on: HCT116 xenograft; assay: HCT116 xenograft mouse model, tumor growth; type: in vivo, CB-17/Icr-scid mice; conditions: for tumor weight: control 1.45 ± 0.33 g
Description: as §2
CB-17/Icr-scid mice were purchased from Beijing HFK Bioscience CO., LTD (Beijing, China). The animals were maintained under ‘specific pathogen free’ conditions. The mice were randomly divided into three groups: (i) vehicle group (n = 8); (ii) 150 mg/kg ilaprazole-treated group (n = 8); (III) 75 mg/kg ilaprazole-treated group. HCT 116 cells were inoculated subcutaneously (2 × 10^6 cells) into the left flank of each mouse in all groups. Treatment was started after 4 days of cell injection. The duration of the animal study was 19 days. The tumor volume was calculated from measurements of 3 diameters of the individual tumor based on the following formula:
tumor volume (mm^3) = (length × width × height × 0.52). The mice were monitored until tumors reached 1 cm^3 total volume, at which the mice were euthanized and the tumors were extracted. The tumors were dissected and sent for immune-histochemical analysis.

[11] = tested on: HCT116 cells; assay: Apoptosis by flow cytometry (Annexin V/propidium iodide), HCT116; type: cell-based, human; conditions: HCT116, 50 μM, 24 h; control 2%
Description: (§6) Cells were pre-treated with different concentrations of ilaprzole for 24 h, and then the cellular apoptosis was measured by using flow cytometry. […] Apoptotic cells were assessed by staining PBS washed cells with phycoerythrin (PE)-conjugated annexin-V (BD Pharmingen) for 10-15 minutes in incubation buffer (Annexin-V-FLUOS Staining Kit, Roche). Fluorescence was recorded by flow cytometry using the FACS Aria (BD Bio sciences).

[12] = tested on: shTOPK and shMock infected cancer cells; assay: Growth of shMock versus shTOPK infected cells (CCK8); type: cell-based, human; conditions: 48 hours
From the text: To investigate the growth-promoting role of TOPK in cancer cells, the expression of endogenous TOPK was knocked down in four cancer cells. By lentiviral infection, HCT116, ES-2, A549 and SW1990 cell lines stably expressing low levels of TOPK (shTOPK) were established. As the control, cells were infected with shMock. The abundance of TOPK in these cells was confirmed by western blot analysis (Figure 2a).
The effect of ilaprazolewas examined in shMock and knockdown cell lines with shTOPK. Cells were incubated for 48 hours and growth was determined by cck8 assay.
“The target sequences of oligo siRNAs were as follows: 5′-[…] -3′ for TOPK to produce lentiviral particles.”
The transfection medium was changed at 4 hours after transfection and then cells were cultured for 36 hours. The viral particles were harvested by filtration using a […] syringe filter, then combined with […] of polybrene (Millipore) and infected into 60% confluent HCT-116 cells overnight. The cell culture medium was replaced with fresh complete growth medium for 24 hours and then cells were selected with puromycin ([…]) for 36 hours. The selected cells were used for experiments.

[13] = tested on: ES-2 cells; assay: Apoptosis by flow cytometry (Annexin V/propidium iodide), ES-2; type: cell-based, human; conditions: ES-2, 50 μM, 24 h; control 2%
Description: as §6

[14] = tested on: ES-2 cells; assay: Cell viability (cck8) assay, ES-2; type: cell-based; conditions: Homo sapiens, read-out: IC50, growth of ES-2 cells
Description: as §1

In the case of `Cc1c(OCC(F)(F)F)ccnc1C[S+]([O-])c1nc2ccccc2[nH]1` (centres unmarked) [Lansoprazole, lansoprazole], the Kd ([1]; read-out: Kd) is reported as 241 µM and 242 µM and the IC50 [2] is reported as 103 ± 4.1 µM.

Compound `COCCCOc1ccnc(C[S+]([O-])c2nc3ccccc3[nH]2)c1C` (centres unmarked) [Rabeprazole, rabeprazole] has a Kd ([1]; read-out: Kd) of 324 µM and an IC50 [2] of over 500 µM.

In the case of `COc1ccc2nc([S@@+]([O-])Cc3ncc(C)c(OC)c3C)[nH]c2c1` [Esomeprazole, esomeprazole], the Kd [1] is reported as “n.b^c” and the IC50 [2] is reported as over 500 µM.

`COc1ccc2[nH]c([S+]([O-])Cc3ncc(C)c(OC)c3C)nc2c1` (centres unmarked) [Omeprazole, omeprazole] gave a Kd ([1]; read-out: Kd) of 174 µM and an IC50 [2] of 348 ± 7.3 µM.

In the case of `COc1ccnc(C[S+]([O-])c2nc3ccc(OC(F)F)cc3[nH]2)c1OC` (centres unmarked) [Pantoprazole, pantoprazole], the Kd ([1]; read-out: Kd) is given as 24 µM and 24.2 µM, the IC50 [2] is given as 153 ± 8.5 µM and the logP value [3] is given as 1.571 ± 1.065.

For `COc1ccnc(C[S+]([O-])c2nc3cc(-n4cccc4)ccc3[nH]2)c1C` (centres unmarked) [Ilaprazole, ilaprazole], the cell cycle distribution [4] was “cell cycle arrested at the G1 phase”, the “microstructures of sections of the liver, kidney and spleen” value ([5]; mice treated daily for 15 days) was “No significant damage” and the hepatotoxicity and nephrotoxicity ([5]; mice, 75 and 150 mg/kg oral) was “no obvious hepatotoxicity and nephrotoxicity”. For the same compound, the mouse body weight ([5]; mice, 75 and 150 mg/kg via gavage) was “no effect”, the IC50 [6] was 30.1 to 148 µM and the “phosphorylation of histone H3 (Ser10)” value [7] was “substantially attenuated in a dose-dependent manner”. For the same compound, the “phosphorylation of histone H3 (Ser10)” value [8] was “substantially attenuated in a dose-dependent manner”, the Kd ([1]; read-out: Kd) was 111 ± 2.3 µM and the LD50 [9] was “more than 5000 mg/kg”. The tumor weight ([10]; 75 mg/kg daily via gavage (low-dose)) was 0.67 ± 0.21 g, the tumor weight ([10]; 150 mg/kg daily via gavage (high-dose)) was 0.52 ± 0.11 g and the tumor volume ([10]; 75 and 150 mg/kg daily via gavage, after 2 weeks' treatment) was “Significant decreases”. For the same compound, the “phosphorylated histone H3 in tumor tissues (immunohistochemistry)” value ([10]; ilaprazole-treated groups versus vehicle group) was “substantially decreased”, the apoptotic death [11] was 32.03% and the IC50 [2] was 40 ± 0.6 µM. For the same compound, the “growth inhibition of shTOPK cells compared with shMock cells” value [12] was “resistant to the inhibitory effect”, the logP value [3] was 2.882 ± 1.045 and the apoptotic death [13] was 7.62%. For the same compound, the IC50 [14] was 33.2 ± 1 µM.

With `CCSc1ccnc(C[S+]([O-])c2nc3ccccc3[nH]2)c1C` (centres unmarked) [Disuprazole, disuprazole] the Kd [1] was “n.b^c” and the IC50 [2] was over 500 µM.
